28 molecules from ChEMBL document CHEMBL5543121, “Drug Repurposing of ACT001 to Discover Novel Promising Sulfide Prodrugs with Improved Safety and Potent Activity for Neutrophil-Mediated Antifungal Immunotherapy” (J Med Chem, 2024) can be followed below.

Each structure is given as a SMILES string. Calls of active or inactive are those of the source. The rule behind the calls is not given here.

The nature of series [1]: Inhibition of fungal curdlan induced PD-L1 expression in mouse neutrophils at 40 uM relative to control. The class given is functional, Neutrophil. The note with it: for inhibition at 40 µM: Mus musculus, Neutrophil; for inhibition (INH): 40 µM.
The nature of series [2]: (§1) Cytotoxicity against mouse neutrophils assessed as cell viability at 40 uM relative to control. The class given is toxicity, cell-based, Neutrophil. The note with it: mouse neutrophils, read-out: Activity.
The subject of series [3] is Candida albicans. The series can be described thus: Antifungal activity against Candida albicans SC5314 assessed as inhibition of fungal growth measured every 3 hrs for 24 hrs by absorbance based analysis. The class given is functional, organism-based. The note with it: dose 0.25-128 µg/ml.
The test system of another series is Neutrophil. Described as §1. The class given is toxicity, cell-based. Conditions: neutrophil, 40 µM.
Series [4] concerns Candida albicans. The series can be described thus: Antifungal activity against candida albicans SC5314 infected in mouse assessed as reduction in PD-L1 positive Ly6G-positive neutrophils in kidney at 200 mg/kg, po administered on day 1 and 3. Conditions: time 1-3 day. The class given is functional, organism-based.
Series [5] has as its system Candida albicans. Briefly: Antifungal activity against candida albicans SC5314 infected in mouse assessed as reduction in fungal burden in kidney at 200 mg/kg, po administered on day 1 and 3. The class given is functional, organism-based. Conditions: time 1-3 day.
The target of series [6] is Signal transducer and activator of transcription 3 (Mus musculus) (UniProt P42227). Briefly: Binding affinity to STAT3 in mouse bone marrow neutrophils at 20 uM by silver staining based pulldown assay. The class given is cell-based. Conditions: Neutrophil.
Series [7] shares this target. The series can be described thus: Binding affinity to STAT3 in mouse bone marrow neutrophils at 20 uM by pulldown based Western blot analysis. Conditions: Neutrophil. The class given is cell-based. In general terms: A western blot detects proteins with antibodies after separation by electrophoresis.

Sequence of Signal transducer and activator of transcription 3 (Mus musculus) (P42227 whole entry): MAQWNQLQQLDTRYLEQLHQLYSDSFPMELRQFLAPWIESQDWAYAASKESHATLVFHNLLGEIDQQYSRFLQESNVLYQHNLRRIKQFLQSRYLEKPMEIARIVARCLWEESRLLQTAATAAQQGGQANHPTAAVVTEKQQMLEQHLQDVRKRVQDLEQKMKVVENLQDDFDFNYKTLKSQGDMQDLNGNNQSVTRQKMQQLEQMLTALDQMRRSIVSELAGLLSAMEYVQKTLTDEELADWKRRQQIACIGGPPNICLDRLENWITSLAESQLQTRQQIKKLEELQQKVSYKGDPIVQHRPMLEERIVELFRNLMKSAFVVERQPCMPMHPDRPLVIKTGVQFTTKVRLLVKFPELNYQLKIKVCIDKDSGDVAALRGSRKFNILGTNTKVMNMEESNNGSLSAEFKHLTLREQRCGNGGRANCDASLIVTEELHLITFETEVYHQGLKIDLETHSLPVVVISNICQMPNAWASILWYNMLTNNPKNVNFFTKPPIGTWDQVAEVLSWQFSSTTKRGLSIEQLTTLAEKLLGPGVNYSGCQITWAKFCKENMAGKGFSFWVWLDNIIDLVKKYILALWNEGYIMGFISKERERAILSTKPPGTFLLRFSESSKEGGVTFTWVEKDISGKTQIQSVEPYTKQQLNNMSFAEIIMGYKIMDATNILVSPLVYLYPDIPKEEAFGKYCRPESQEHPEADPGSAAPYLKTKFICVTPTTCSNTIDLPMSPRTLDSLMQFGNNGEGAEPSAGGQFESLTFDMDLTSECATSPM

The inhibition is the relative decrease from the control value, in per cent. Read a low inhibition as a response near the control. As for `C[C@@]1(O)CC[C@]23O[C@@]2(C)CC[C@@H]2[C@H](OC(=O)[C@H]2CS(=O)(=O)c2ccc(Cl)cc2Cl)[C@@H]13`, the inhibition at 40 µM in series [1] came to 78.8%. The viability at 40 µM in series [2] worked out at 74.9%.
In the same order, the values of `CC1=C2CC[C@@](C)(O)[C@@H]2[C@H]2OC(=O)[C@@H](CSc3ccc(Cl)c(Cl)c3)[C@@H]2CC1` are 71.1% and 86.6%.
The matching figures for `CC1=C2CC[C@@](C)(O)[C@@H]2[C@H]2OC(=O)[C@@H](CSc3c(Cl)cccc3Cl)[C@@H]2CC1`: 41.6% and 57.5%.
In the same order, the values of `C[C@@]1(O)CC[C@]23O[C@@]2(C)CC[C@@H]2[C@H](OC(=O)[C@H]2CS(=O)(=O)c2ccc(F)cc2)[C@@H]13` are 82.6% and 50.7%.
For `OC(Cn1cncn1)(Cn1cncn1)c1ccc(F)cc1F`, the Activity entry in the series with Candida albicans [3] is “Dose-Dependent Effect”.
In turn, `COc1ccc(S(=O)(=O)C[C@@H]2C(=O)O[C@H]3[C@H]2CCC(C)=C2CC[C@@](C)(O)[C@@H]23)cc1` displayed an inhibition at 40 µM in series [1] of 63.5%. Also, in series [2], the viability at 40 µM came to 39.5%.
`CC1=C2CC[C@@](C)(O)[C@@H]2[C@H]2OC(=O)[C@@H](C)[C@@H]2CC1`: in series [1], testing at 40 µM gave an inhibition of 17.3%. For the same molecule, the viability at 40 µM in series [2] was 98.6%.
In the same order, the values of `CC1=C2CC[C@@](C)(O)[C@@H]2[C@H]2OC(=O)[C@@H](CSc3ccc(Cl)cc3Cl)[C@@H]2CC1` are 52.6% and 20.8%.
As to `C[C@@]1(O)CC[C@]23O[C@@]2(C)CC[C@@H]2[C@H](OC(=O)[C@H]2C[S+]([O-])c2ccc(Cl)cc2Cl)[C@@H]13` (stereo in doubt; 23b), the “inhibition (INH)” value in series [1] is on record as 52.64%. Also, in the series on Neutrophil, the Activity was determined as 65.45%.
In turn, `CC1=C2CC[C@@](C)(O)[C@@H]2[C@H]2OC(=O)[C@@H](CSc3ncccn3)[C@@H]2CC1` yielded an inhibition at 40 µM in series [1] of 49.9%. Moreover, the viability at 40 µM in series [2] worked out at 60.2%.
`Cc1ccc(S(=O)(=O)C[C@@H]2C(=O)O[C@H]3[C@H]2CC[C@]2(C)O[C@@]24CC[C@@](C)(O)[C@H]34)cc1` registered an inhibition at 40 µM in series [1] of 82%. Moreover, in series [2], the viability at 40 µM came out at 71.5%. For the same molecule, the result in the series on Candida albicans [4] and in the series with Candida albicans [5] was Active.
`C[C@@]1(O)CC[C@]23O[C@@]2(C)CC[C@@H]2[C@H](OC(=O)[C@H]2CS(=O)(=O)c2ncccn2)[C@@H]13` registered an inhibition at 40 µM in series [1] of 85%. Besides, the viability at 40 µM in series [2] was 55.5%.
Molecule `COc1ccc(S(=O)(=O)C[C@@H]2C(=O)O[C@H]3[C@H]2CC[C@]2(C)O[C@@]24CC[C@@](C)(O)[C@H]34)cc1` returned an inhibition at 40 µM in series [1] of 77.4%. Besides, in series [2], the viability at 40 µM was found to be 54.8%.
With `CC1=C2CC[C@@](C)(O)[C@@H]2[C@H]2OC(=O)[C@@H](C[S+]([O-])c3ccc(Cl)cc3Cl)[C@@H]2CC1` (stereo in doubt; 22b), the “inhibition (INH)” value in series [1] worked out at 47.66%. Besides, the Activity in the series with Neutrophil was determined as 21.1%.
With `CC1=C2CC[C@@](C)(O)[C@@H]2[C@H]2OC(=O)[C@@H](CSC3CCCCC3)[C@@H]2CC1`, the inhibition at 40 µM in series [1] stood at 15.8%. Besides, in series [2], the viability at 40 µM worked out at 101%.
In series [1], `CC1=C2CC[C@@](C)(O)[C@@H]2[C@H]2OC(=O)[C@@H](C[S+]([O-])c3ccc(Cl)cc3Cl)[C@@H]2CC1` (stereo in doubt; 22a) had an inhibition at 40 µM of 64.8%. In addition, the Activity in the series on Neutrophil is on record as 74.28%.
`CC1=C2CC[C@@](C)(O)[C@@H]2[C@H]2OC(=O)[C@@H](CSc3ccc(C)cc3)[C@@H]2CC1` gave an inhibition at 40 µM in series [1] of 34.8%. Further, in series [2], the viability at 40 µM was 70.6%.
In the case of `C=C1C(=O)O[C@H]2[C@H]1CCC(C)=C1CC[C@@](C)(OC(=O)CCCc3cn(CCOCCOCCOCCNC(=O)CCCC[C@H]4SC[C@H]5NC(=O)N[C@H]54)nn3)[C@@H]12`, the outcome in series [6] and in series [7] was Active.
`CC1=C2CC[C@@](C)(O)[C@@H]2[C@H]2OC(=O)[C@@H](CSCCC(C)C)[C@@H]2CC1` registered an inhibition at 40 µM in series [1] of 25.2%. Moreover, the viability at 40 µM in series [2] came to 101%.
The matching figures for `CC(C)CCS(=O)(=O)C[C@@H]1C(=O)O[C@H]2[C@H]1CC[C@]1(C)O[C@@]13CC[C@@](C)(O)[C@H]23`: 60.9% and 68.7%.
`CC1=C2CC[C@@](C)(O)[C@@H]2[C@H]2OC(=O)[C@@H](CSc3ccc(F)cc3)[C@@H]2CC1`: in series [1], at 40 µM the inhibition was 45.6%. Besides, the viability at 40 µM in series [2] is 74.6%.
The matching figures for `COc1ccc(SC[C@@H]2C(=O)O[C@H]3[C@H]2CCC(C)=C2CC[C@@](C)(O)[C@@H]23)cc1`: 63.2% and 88.8%.
Turning to `C[C@@]1(O)CC[C@]23O[C@@]2(C)CC[C@@H]2[C@H](OC(=O)[C@H]2CS(=O)(=O)c2ccncc2)[C@@H]13`, the inhibition at 40 µM in series [1] came to 65.4%. The viability at 40 µM in series [2] came out at 79.4%.
Turning to `C[C@@]1(O)CC[C@]23O[C@@]2(C)CC[C@@H]2[C@H](OC(=O)[C@H]2CS(=O)(=O)c2ccc(Cl)c(Cl)c2)[C@@H]13`, testing at 40 µM in series [1] gave an inhibition of 72.7%. Further, in series [2], the viability at 40 µM came to 65.2%.
Regarding `C[C@@]1(O)CC[C@]23O[C@@]2(C)CC[C@@H]2[C@H](OC(=O)[C@H]2CS(=O)(=O)C2CCCCC2)[C@@H]13`, in series [1], testing at 40 µM gave an inhibition of 65.3%. Moreover, in series [2], the viability at 40 µM stood at 76.2%.
In the same order, the values of `CC1=C2CC[C@@](C)(O)[C@@H]2[C@H]2OC(=O)[C@@H](CSc3ccncc3)[C@@H]2CC1` are 72.5% and 57.2%.
The matching figures for `C[C@@]1(O)CC[C@]23O[C@@]2(C)CC[C@@H]2[C@H](OC(=O)[C@H]2C[S+]([O-])c2ccc(Cl)cc2Cl)[C@@H]13` (stereo in doubt; 23a): 61.1% and 59.2%.
In the same order, the values of `CC1=C2CC[C@@](C)(O)[C@@H]2[C@H]2OC(=O)[C@@H](CS(=O)(=O)C3CCCCC3)[C@@H]2CC1` are 49.5% and 66.3%.
